The target of one test is T1, sigma receptors (Cavia porcellus, UniProt Q60492).
T1 construct: Brain tissue was prepared from male Hartley guinea pigs; tissue Hazelton Labs, Denver, Pa; (animals); host or cells: guinea pig brain membranes
T1 sequence (Q60492 whole entry): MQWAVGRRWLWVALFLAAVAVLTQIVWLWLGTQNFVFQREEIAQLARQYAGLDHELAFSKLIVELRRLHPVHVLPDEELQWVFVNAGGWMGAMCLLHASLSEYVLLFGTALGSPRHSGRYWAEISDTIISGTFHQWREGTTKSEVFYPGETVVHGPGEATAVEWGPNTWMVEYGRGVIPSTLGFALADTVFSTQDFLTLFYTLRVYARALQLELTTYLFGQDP
The experiment in a line: sigma receptor binding activity, [3H]-(+)-pentazocine binding to guinea pig brain membranes. On the set-up: species or system male Hartley guinea pigs. The conditions noted are these: at 10 μM; guinea pig brain membranes; approximately 0.5 nM [3H]-(+)-pentazocine; 37° C., 150 min; read-out: Percent Inhibition (of [3H]-(+)-pentazocine binding). As to the method: Brain tissue was prepared from male Hartley guinea pigs (Hazelton Labs, Denver, Pa.) which were anesthetized with CO2 and sacrificed by decapitation. All animal care and use procedures were in accord with the "Guide for the Care and Use of Laboratory Animals" (NIH Publ. No 86-23, 1985). Homogenization was performed in 10 volumes (wt/vol) of 0.32M sucrose with a Brinkmann Polytron at setting 5, 30 sec. The homogenate was centrifuged at 900 x g for 10 min at 4° C., and the supernatant was collected and centrifuged at 22,000 x g for 20 min at 4° C. The pellet was resuspended in 10 volumes of Tris-HCl buffer (50 mM, pH 7.4), incubated at 37° C. for 30 min, and centrifuged at 22,000 x g for 20 min at 4° C. Following this, the pellet was resuspended in Tris buffer and frozen in 5-10 mL aliquots corresponding to a tissue concentration of 100 mg/mL, at -70° C. Binding characteristics of the membranes were stable for at least one month when stored at -70° C.
On the day of the assay, membrane aliquots were thawed, resuspended in fresh Tris-HCl buffer and stored on ice until use. Each assay tube contained 100 μL of [3H]-(+)-pentazocine at a final concentration of approximately 0.5 nM, 100 μL of various concentrations of the compounds of interest, 500 μL of the tissue suspension and 300 μL of buffer to a final assay volume of 1 mL and a final tissue concentration of approximately 8 mg/tube, corresponding to approximately 0.15 mg protein/tube. Nonspecific binding was defined by addition of a final concentration of 1 μM haloperidol to blank tubes. All tubes were incubated at 37° C. for 150 min before termination of the reaction by rapid filtration over Whatman GF/B glass fiber filters that were presoaked in a solution of 0.5% polyethyleneimine for at least 1 hr prior to use. Filters were washed with three 4 ml volumes of cold Tris-HCl buffer.
Following addition of scintillation cocktail, samples were allowed to equilibrate for at least 4 hr. The amount of bound radioactivity was determined by liquid scintillation spectrometry using a Beckman LS 5000 TA liquid scintillation counter with an efficiency for tritium of approximately 60%. The results are reported as a percent (%) inhibition of binding at 10 μM.
Scatchard parameters and inhibition constants (Ki values) for the binding of test compounds were also calculated using the EBDA/LIGAND program (McPherson, J. Pharmacol. Meth. 1985, 14, 213-228), purchased from Elsevier/Biosoft, Inc. The Ki values are expressed as the mean ±SEM of at least three separate determinations performed in triplicate.
`CCOC(=O)CC[C@]1(C)[C@H](C)CCN(C)[C@H]1C` (relative stereo) [Example 1, ethyl 3-(1,2,3,4-tetramethyl-3-piperidine)propanoate]: the inhibition at 10 µM was found to be 70%.

With `C[C@@H]1CCN[C@@H](C)[C@]1(C)CCC(=O)CCC1CCCC1` (relative stereo) [Example 3b, 1-cyclopentyl-5-(2,3,4-trimethyl-3-piperidinyl)-3-pentanone], the inhibition at 10 µM came out at 96%.

Consider `C[C@@H]1CCN(CC2(O)CC2)[C@@H](C)[C@]1(C)CCC(=O)CCC1CCCC1` (relative stereo) [Example 3c], for which the inhibition at 10 µM amounted to 98%.

Take `CCOC(=O)CC[C@]1(C)[C@H](C)CCN(Cc2ccccc2)[C@H]1C` (relative stereo) [Example 6, ethyl 3-[2,3,4-trimethyl-1-(phenylmethyl)-3-piperidine)propanoate]: the inhibition at 10 µM was 99%.

Turning to `CC1N(CC2(O)CC2)CCC2CCCCC21CCC(=O)CCC1CCCC1` (stereo not drawn) [Example 10], the inhibition at 10 µM is 84%.

Staying with this test, now noted: mean ±SEM of at least three separate determinations performed in triplicate; [3H]-(+)-pentazocine; EBDA/LIGAND.
With `CCOC(=O)CC[C@]1(C)[C@H](C)CCN(Cc2ccccc2)[C@H]1C` (relative stereo) [Example 6, ethyl 3-[2,3,4-trimethyl-1-(phenylmethyl)-3-piperidine)propanoate], affinity was put at a Ki of 0.039 ± 0.005 µM.

Staying with this test, now noted: read-out: Percent Inhibition (of [3H]-(+)-pentazocine binding).
For the compound `C[C@@H]1CCN(C)[C@@H](C)[C@]1(C)CCC(=O)CCC1CCCC1` (relative stereo) [Example 2, 1-cyclopentyl-5-(1,2,3,4-tetramethyl-3-piperidinyl)-3-pentanone], the inhibition at 10 µM was determined as 100%. For the compound `C[C@@H]1CCN(C)[C@@H](C)[C@]1(C)CCC(=O)c1ccoc1` (relative stereo) [Example 4, 1-(3-furanyl)-3-(1.2.3.4-tetramethyl-3-piperidinyl)-1-propanone], the inhibition at 10 µM was found to be 78%. Still for that read-out and setting: the same measure for `C[C@@H]1CCN(C)[C@@H](C)[C@]1(C)CCC(=O)c1ccco1` (relative stereo) [Example 5, 1-(2-furanyl)-3-(1,2,3,4-tetramethyl-3-piperidinyl)-1-propanone]: 57%.

By inhibition is commonly meant the percentage by which the read-out fell short of the control. The Ki is a measure of affinity in units of concentration, obtained from inhibition or displacement. Lower therefore signals a stronger hold on the target.

The values are drawn from patent publication US5286733A, “Substituted 3-piperidinealkanoates and alkanones and compositions and method of use thereof” (Sterling Winthrop Inc., priority 1992, dated 1994).
